Assay results: patent US10307418B2, “Azole pharmaceutical formulations for parenteral administration and methods for preparing and using the same as treatment of diseases sensitive to azole compounds” (Platform Brightworks Two, Ltd., priority 2010, dated 2019)
≈ marks a conversion by molar mass, not a printed value. Read-outs that look alike come from different tables or passages of the source.

Columns and labels:
[1] = Maximum solubility of ITZA and azole analogues in solvents (HPLC); assay type: physicochemical; settings: for solubility at 30 min: organic solvent or mixture, thermodynamic from solid
Experimental: ITZA and its analogues were dissolved in various solvents incubated at 37° C. for 30 minutes, cooled down to room temperature, centrifuged at 14,000 rpm for 1 min. The supernatant was analyzed using HPLC to determine the maximum solubility of ITZA and its azole analogues.
In a first step the maximum ITZA solubility in various single solvents was determined. To this end, ITZA and its analogs were dissolved in various solvents, incubated at 37° C. for 30 minutes, cooled down to room temperature, centrifuged at 14,000 rpm for 1 min. The supernatant was analyzed using HPLC to determine the maximum solubility of the respective agent.
The solubility of ITZA was determined in several individual vehicles. Briefly, a known amount of ITZA drug, formulated as a powder (Sigma Inc., St Louis, Mo.), was equilibrated in the respective solvent at RT over 1-4 hours. An aliquot was removed, filtered, and prepared for HPLC to determine maximum solubility at room temperature. Based on the ITZA solubility in each vehicle, different solvents were mixed according to the cosolvency principle in an attempt to arrive at an enhanced stable solubility. […] The stock formulation was then diluted with a final diluent, i.e. NS or D5W or DlOW, to yield a stable use-formulation. The desired range of the final use-formulation was between 1 and 5 mg/mL, as it would result in a final volume that could be safely and conveniently infused intravascularly.
An excess of ITZA as a powder was added to a multitude of chemical solvents (Table 1) at RT. Each mixture was intermittently vortexed, placed in a dark environment and checked visually for up to 4 hours for evidence of solubilization. Following centrifugation to remove solid particles, small samples were withdrawn after consecutive time intervals and the ITZA concentration was determined by HPLC as described.

[2] = system: Candida cruzei (ATCC strain 6258); assay: Yeast susceptibility test, MIC (CLSI standard); assay type: cell-based; settings: tested range 38 μg/mL to 0.03 μg/mL, read out at 24 hours, average of three experiments
Experimental: (§1) Briefly, susceptibility tests were set-up using a standardized methodology (CLSI […] standard). Drugs were diluted into RPMI-Mops medium (Yeast One Broth (Sensititer, product Y3462, Trek Diagnostic Systems, Cleveland, Ohio) Sensititer Lot number 151416SA-expiration date 2011-01). Two different strains of yeast were tested, the standardized evaluation/read out was performed at 24 hours after the start of each culture. The tests were repeated twice and all MIC (minimum inhibitory concentration) values are reported as an average of the three experiments.

Candida parapsilosis = assay: Yeast susceptibility test, MIC (CLSI standard); assay type: cell-based; settings: tested range 38 μg/mL to 0.03 μg/mL, read out at 24 hours, average of three experiments
Experimental: as §1

[3] = system: Aspergillus fumigatus (ATCC strain 90906); assay: Mold susceptibility test, MIC (CLSI M38A); assay type: cell-based
Experimental: (§2) Two hyaline molds were tested with a standard read out at 48 hrs:
(§3) Tested drug range: 75 μg/mL to 0.07 μg/mL
(§4) To further determine the antifungal activity of the compounds in the new formulation systems we investigated the efficacy of the various agents against additional strains of mucor and Aspergillus (9/-16-9/20/2010) (The Rhizomucor was a clinical isolate from a patient isolate) and the Aspergillus fumigatus (ATCC strain 90906) used was a repeat from the previously described experiment. Again, the susceptibility tests were set-up using the standardized test method (CLSI M38A). The used drugs were provided in the described H3 final use-formulation that has been previously described. All drugs were diluted in RPMI-Mops medium (YeastOne, Sensititer Lot 151416SA, expiration date January 2011).
As before two different molds were tested with a standard read out at 48 hr: • Drug dilution range 75 μg/mL to 0.07 μg/mL. • Aspergillus fumigatus (ATCC strain 90906) Zygomycete (Clinical Lab isolate, MDACC) […]

[4] = system: Aspergillus fumigatus (Clinical Lab isolate); assay: Mold susceptibility test, MIC; assay type: cell-based; settings: tested range 75 μg/mL to 0.07 μg/mL, read out at 48 hrs
Experimental: as §2, §3, §1

[5] = system: Zygomycete (Clinical Lab isolate, MDACC); assay: Extended mold testing, MIC (CLSI M38A); assay type: cell-based; settings: H3 final use-formulation, range 75 μg/mL to 0.07 μg/mL, 48 hr
Description: as §4
As before two different molds were tested with a standard read out at 48 hr: • Drug dilution range 75 μg/mL to 0.07 μg/mL. • Aspergillus fumigatus (ATCC strain 90906) Zygomycete (Clinical Lab isolate, MDACC)

[6] = solvent H3D (no benzyl alcohol), single determination, read-out: Azole solubility, [Drug] mg/mL
[7] = solvent H3D (no benzyl alcohol), read-out: Azole solubility, Average mg/mL
[8] = solvent H3G (no benzyl alcohol), single determination, read-out: Azole solubility, [Drug] mg/mL
[9] = solvent H3G (no benzyl alcohol), read-out: Azole solubility, Average mg/mL
[10] = solvent H3D (no benzyl alcohol), single determination
[11] = solvent H3G (no benzyl alcohol), single determination
[12] = extended mold testing (repeat), H3 final use-formulation, range 75 μg/mL to 0.07 μg/mL, 48 hr
[13] = tested range 75 μg/mL to 0.07 μg/mL, read out at 48 hrs, first experiment
[14] = Aspergillus fumigatus, 48 h, read-out: MIC

| MIC [2] | MIC [3, 12] | MIC [3, 13] | MIC [5] | Compound | solubility at 30 min [1, 6] [mg/mL] | solubility at 30 min [1, 7] [mg/mL] | solubility at 30 min [1, 8] [mg/mL] | solubility at 30 min [1, 9] [mg/mL] | Azole solubility, [Drug] mg/mL [1, 10] [mg/mL] | Azole solubility, [Drug] mg/mL [1, 11] [mg/mL] | MIC (Candida parapsilosis; 24 h, read-out: MIC) [µg/mL] | MIC [4] | MIC (Candida parapsilosis) | MIC ([2]; Candida, ATCC6258, 24 h, read-out: MIC) [µg/mL] | MIC ([3]; Aspergillus fumigatus, ATCC90906, 48 h, extended mold testing (repeat), H3 final use-formulation, range 75 μg/mL to 0.07 μg/mL, 48 hr, read-out: MIC) [µg/mL] | MIC ([3]; Aspergillus fumigatus, ATCC90906, 48 h, tested range 75 μg/mL to 0.07 μg/mL, read out at 48 hrs, first experiment, read-out: MIC) [µg/mL] | MIC [4, 14] [µg/mL] | MIC ([5]; read-out: MIC) [µg/mL] |
| --- | --- | --- | --- | --- | --- | --- | --- | --- | --- | --- | --- | --- | --- | --- | --- | --- | --- | --- |
| all grew | all grew | all grew | all grew | OC(Cn1cncn1)(Cn1cncn1)c1ccc(F)cc1F [FZSA, Fluconazole] | 38.6 (≈ 126000 µM) | 36.1 (≈ 118000 µM) | 28.4 (≈ 92700 µM) | 30.3 (≈ 98900 µM) | 33.5 | 32.2 | 1.2 (≈ 3.92 µM) | all grew |  |  |  |  |  |  |
|  |  |  |  | CC(=O)N1CCN(c2ccc(OCC3COC(Cn4ccnc4)(c4ccc(Cl)cc4Cl)O3)cc2)CC1 (stereo not drawn) [KZSA, Ketoconazole] | 15.4 (≈ 29000 µM) | 15.3 (≈ 28800 µM) | 14.8 (≈ 27800 µM) | 14.9 (≈ 28000 µM) | 15.2 | 15.1 | 0.03 (≈ 0.0565 µM) |  |  | 0.15 (≈ 0.282 µM) | 10 (≈ 18.8 µM) | 20 (≈ 37.6 µM) | 20 (≈ 37.6 µM) | 38 (≈ 71.5 µM) |
| all grew (no drug effect) | all grew (no inhibition) | all grew (no drug effect) | all grew | COC(=O)Nc1nc2ccc(C(=O)c3ccccc3)cc2[nH]1 [MBZSA, Mebendazole] |  |  |  |  |  |  |  |  | all grew |  |  |  | 5 (≈ 16.9 µM) |  |

| Compound | MIC [2] | MIC [3, 12] | MIC [3, 13] | MIC [5] | solubility at 30 min [1, 6] [mg/mL] | solubility at 30 min [1, 7] [mg/mL] | solubility at 30 min [1, 8] [mg/mL] | solubility at 30 min [1, 9] [mg/mL] | Azole solubility, [Drug] mg/mL [1, 10] [mg/mL] | Azole solubility, [Drug] mg/mL [1, 11] [mg/mL] | MIC (Candida parapsilosis; 24 h, read-out: MIC) [µg/mL] | MIC [4] | MIC (Candida parapsilosis) | MIC ([2]; Candida, ATCC6258, 24 h, read-out: MIC) [µg/mL] | MIC ([3]; Aspergillus fumigatus, ATCC90906, 48 h, extended mold testing (repeat), H3 final use-formulation, range 75 μg/mL to 0.07 μg/mL, 48 hr, read-out: MIC) [µg/mL] | MIC ([3]; Aspergillus fumigatus, ATCC90906, 48 h, tested range 75 μg/mL to 0.07 μg/mL, read out at 48 hrs, first experiment, read-out: MIC) [µg/mL] | MIC [4, 14] [µg/mL] | MIC ([5]; read-out: MIC) [µg/mL] |
| --- | --- | --- | --- | --- | --- | --- | --- | --- | --- | --- | --- | --- | --- | --- | --- | --- | --- | --- |
| CCC(C)n1ncn(-c2ccc(N3CCN(c4ccc(OCC5COC(Cn6cncn6)(c6ccc(Cl)cc6Cl)O5)cc4)CC3)cc2)c1=O (stereo not drawn) [ITZA(ref 2), itraconazole] | 0.3 µg/mL (≈ 0.425 µM) | 0.3 µg/mL (≈ 0.425 µM) | 0.6 µg/mL (≈ 0.85 µM) | 2.5 µg/mL (≈ 3.54 µM) |  |  |  |  |  |  |  | 0.3 µg/mL (≈ 0.425 µM) | 0.15 µg/mL (≈ 0.213 µM) |  |  |  |  |  |
